Values quoted from earlier work, collected in patent US20020137785A1, “Inflammatory mechanism modulator composition and methods with anti-asthmatic properties” (priority 2001, published 2002).

Legend:
[1] = people with septic shock; NAC alone; reduced from 21 days
[2] = intravenous; coronary artery disease; tachycardia induced in the electrophysiology laboratory

Compound | ventilator time (mechanical breathing) [1] | aborting monomorphic ventricular tachycardia [2]
CC(=O)N[C@@H](CS)C(=O)O [NAC, N-acetyl-cysteine] | about 7 days | –
O=S(=O)([O-])[O-].[Mg+2] [magnesium sulfate] | – | ineffective
